Here are results for seven molecules from patent publication US20030073681A1, “2-substituted piperidines that are ligands for monoamine receptors and transporters” (priority 2001, published 2003).

The term IC50 denotes the concentration needed to halve the response being measured. Low values mean greater potency, high ones weaker potency. The EC50 is the concentration needed to bring the measured effect to its halfway point.

Assay [1] has as its target T1, Human 5-HT Receptor (Homo sapiens, UniProt P31645). As to the kind of experiment: Displacement of serotonin ligands in vitro (uptake profile). It counts as binding.
Assay [2] concerns the target T2, Human NE Receptor (Homo sapiens, UniProt P23975). The assay can be described thus: Displacement of norephinephrine ligands in vitro (uptake profile). It counts as binding.
Assay [3] addresses T3, Human DA Receptor (Homo sapiens, UniProt Q01959). The assay can be described thus: Displacement of dopamine ligands in vitro (uptake profile).
Assay [4] deals with T3, Human DA Receptor. The assay can be described thus: Dopamine functional activity in hDAT cell line. It counts as cell-based. Details: expressed in transfected cells. To be noted: read-out: Functional Assays (EC50, nM) Human DA Receptor.
In assay [5] the target is T2, Human NE Receptor. The assay can be described thus: Functional activity for norephinephrine uptake inhibition in MDCK cell lines. The format is cell-based. To be noted: read-out: Functional Assays (EC50, nM) Human NE Receptor.
The target of assay [6] is T1, Human 5-HT Receptor. The assay can be described thus: Functional activity for serotonin uptake inhibition in human HEK-293 cell lines. Set-up: expressed in transfected cells; host or cells: HEK-293. It counts as cell-based. To be noted: read-out: Functional Assays (EC50, nM) Human 5-HT Receptor.

T1 sequence (P31645 whole entry): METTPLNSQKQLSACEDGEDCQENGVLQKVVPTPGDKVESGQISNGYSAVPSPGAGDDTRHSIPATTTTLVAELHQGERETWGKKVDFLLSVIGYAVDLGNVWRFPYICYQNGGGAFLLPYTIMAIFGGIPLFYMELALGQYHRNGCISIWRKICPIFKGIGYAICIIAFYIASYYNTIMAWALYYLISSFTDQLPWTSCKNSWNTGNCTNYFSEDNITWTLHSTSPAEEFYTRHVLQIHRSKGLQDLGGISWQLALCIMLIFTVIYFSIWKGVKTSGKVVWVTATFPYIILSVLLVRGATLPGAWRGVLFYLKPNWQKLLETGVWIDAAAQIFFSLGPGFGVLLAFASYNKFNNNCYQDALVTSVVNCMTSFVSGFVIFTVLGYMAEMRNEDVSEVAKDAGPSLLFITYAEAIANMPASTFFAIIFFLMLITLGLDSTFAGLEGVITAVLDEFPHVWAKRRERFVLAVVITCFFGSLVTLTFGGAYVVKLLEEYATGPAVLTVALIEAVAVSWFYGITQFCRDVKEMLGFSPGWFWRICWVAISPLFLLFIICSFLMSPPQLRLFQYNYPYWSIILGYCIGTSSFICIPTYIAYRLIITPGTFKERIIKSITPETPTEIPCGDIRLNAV
T2 sequence (P23975 whole entry): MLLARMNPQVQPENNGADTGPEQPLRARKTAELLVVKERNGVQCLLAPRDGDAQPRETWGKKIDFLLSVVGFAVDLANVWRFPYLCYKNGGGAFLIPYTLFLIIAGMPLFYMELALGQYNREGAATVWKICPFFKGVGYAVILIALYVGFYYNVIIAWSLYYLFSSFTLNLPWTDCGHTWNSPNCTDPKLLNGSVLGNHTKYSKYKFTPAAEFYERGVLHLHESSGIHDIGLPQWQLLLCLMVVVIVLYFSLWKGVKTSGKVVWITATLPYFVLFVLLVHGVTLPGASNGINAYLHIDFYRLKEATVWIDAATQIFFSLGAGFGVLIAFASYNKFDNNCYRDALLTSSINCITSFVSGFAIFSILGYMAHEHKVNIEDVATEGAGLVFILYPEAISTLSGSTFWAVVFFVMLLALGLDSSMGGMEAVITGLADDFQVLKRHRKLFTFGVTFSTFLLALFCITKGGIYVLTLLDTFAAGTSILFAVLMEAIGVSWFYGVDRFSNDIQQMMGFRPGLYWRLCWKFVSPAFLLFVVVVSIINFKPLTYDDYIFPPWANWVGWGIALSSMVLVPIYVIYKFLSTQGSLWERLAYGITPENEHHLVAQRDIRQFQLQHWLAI
T3 sequence (Q01959 whole entry): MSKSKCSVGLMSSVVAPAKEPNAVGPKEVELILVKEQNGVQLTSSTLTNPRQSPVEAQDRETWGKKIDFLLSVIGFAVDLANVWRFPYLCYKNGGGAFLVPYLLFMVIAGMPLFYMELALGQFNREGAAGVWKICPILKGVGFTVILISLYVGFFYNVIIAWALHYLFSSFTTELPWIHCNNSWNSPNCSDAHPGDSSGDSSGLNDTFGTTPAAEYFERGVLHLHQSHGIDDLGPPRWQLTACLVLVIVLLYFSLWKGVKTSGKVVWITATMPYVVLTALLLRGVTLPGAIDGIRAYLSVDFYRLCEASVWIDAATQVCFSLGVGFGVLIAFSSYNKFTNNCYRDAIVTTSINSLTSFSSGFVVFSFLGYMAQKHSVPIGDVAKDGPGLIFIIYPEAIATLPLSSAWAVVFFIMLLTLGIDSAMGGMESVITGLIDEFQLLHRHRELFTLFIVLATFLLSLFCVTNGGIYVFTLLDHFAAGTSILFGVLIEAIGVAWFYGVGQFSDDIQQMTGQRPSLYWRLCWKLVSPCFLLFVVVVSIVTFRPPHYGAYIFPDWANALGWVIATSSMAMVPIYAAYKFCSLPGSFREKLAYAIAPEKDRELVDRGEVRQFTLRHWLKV

For `CC(CN1CCCCC1CCOc1ccc(C(F)(F)F)cc1)C(=O)c1ccc(Cl)cc1` (stereo not drawn) [Compound 13, 1-(4-Chloro-phenyl)-2-methyl-3-{2-[2-(4-trifluoromethyl-phenoxy)-ethyl]-piperidin-1-yl}-propan-1-one], the 50% inhibitory concentration (IC50) in assay [1], in assay [2] and in assay [3] was > 1000 nM each time.
For the molecule `CN1CCN(CC(O)c2ccc(Cl)cc2)C(CCc2ccc(C(F)(F)F)cc2)C1` (stereo not drawn) [Compound 30, 1-(4-Chloro-phenyl)-2-{4-methyl-2-[2-(4-trifluoromethyl-phenyl)-ethyl]-piperazin-1-yl}-ethanol], the EC50 in assay [4] is > 1000 nM; in assay [5], > 1000 nM; in assay [6] it was < 1000 nM.
Consider `O[C@H](CN1CCCCC1CCOc1ccc(C(F)(F)F)cc1)C1(c2ccc(Cl)cc2)CCC1` (stereo partly drawn) [Compound 9, 1-[1-(4-Chloro-phenyl)-cyclobutyl]-2-{2-[2-(4-trifluoromethyl-phenoxy)-ethyl]-piperidin-1-yl}-S-ethanol], for which the IC50 was < 1000 nM in assay [1], < 100 nM in assay [2] and < 10 nM in assay [3]. In addition, the figures for the EC50 in assay [4], in assay [5] and in assay [6] were < 100 nM, < 10 nM and < 100 nM, respectively.
`O=C(CCCN1CCCCC1CCOc1ccc(C(F)(F)F)cc1)c1ccc(F)cc1` (stereo not drawn) [Compound 32, 1-(4-Fluoro-phenyl)-4-{2-[2-(4-trifluoromethyl-phenoxy)-ethyl]-piperidin-1-yl}-butan-1-one]: the EC50 is < 1000 nM in assay [4], > 1000 nM in assay [5] and < 1000 nM in assay [6].
Consider `FC(F)(F)c1ccc(OCCC2CCCCN2CC2(c3ccc(Cl)cc3)CCC2)cc1` (stereo not drawn) [Compound 7, 1-[1-(4-Chloro-phenyl)-cyclobutylmethyl]-2-[2-(4-trifluoromethyl-phenoxy)-ethyl]-piperidine], for which the IC50 in assay [1] was > 1000 nM; in assay [2], < 1000 nM; in assay [3], < 100 nM.
On to `CC(CN1CCCCC1CCOc1ccc(C(F)(F)F)cc1)C(O)c1ccc(Cl)cc1` (stereo not drawn) [Compound 14, 1-(4-Chloro-phenyl)-2-methyl-3-{2-[2-(4-trifluoromethyl-phenoxy)-ethyl]-piperidin-1-yl}-propan-1-ol], for which the values for the IC50 in assay [1], in assay [2] and in assay [3] were < 1000 nM, < 1000 nM and < 100 nM, respectively.
As to `OC(CN1CCCCC1CCOc1ccc(C(F)(F)F)cc1)C1(c2ccc(Cl)c(Cl)c2)CCC1` (stereo not drawn) [Compound 18, 1-[1-(3,4-Dichloro-phenyl)-cyclobutyl]-2-{2-[2-(4-trifluoromethyl-phenoxy)-ethyl]-piperidin-1-yl}-ethanol], the IC50 is < 1000 nM in assay [1], < 100 nM in assay [2] and < 10 nM in assay [3].
